Numbers after ± are expanded uncertainties.
Experiment: xn = mol fraction of the nth substance listed
Conditions: 101 kPa, Liquid, Vibrating tube method, x1 = 1

SMILES: O [water] + C1CCOC1
- mass density (323.15 K): 988.02 ± 0.2 kg/m3
- mass density (328.15 K): 985.68 ± 0.21 kg/m3
- mass density (333.15 K): 983.17 ± 0.21 kg/m3

Reference: the NIST ThermoML archive (doi:10.1016/j.jct.2009.06.014)
